Patent US20160039767A1, “PYRAZOLE DERIVATIVES AS PRMT1 INHIBITORS AND USES THEREOF” (EPIZYME, INC., priority 2013, published 2016)
Like-named read-outs stand apart in the source and are kept apart here.

Key:
[1] = target: T1, PRMT1 (Homo sapiens, UniProt Q99873); assay: PRMT1 Biochemical Assay (3H-SAM Flashplate, histone H4 peptide substrate); conditions: Biochemical IC50 (Numerical, μM) PRMT1, single experiment or average of multiple experiments, Table 2a
T1 construct: GST-tagged PRMT1; made in house; host or cells: High Five insect cells (baculovirus, pFastBacI)
T1 sequence (Q99873 with tags, fused parts or gaps): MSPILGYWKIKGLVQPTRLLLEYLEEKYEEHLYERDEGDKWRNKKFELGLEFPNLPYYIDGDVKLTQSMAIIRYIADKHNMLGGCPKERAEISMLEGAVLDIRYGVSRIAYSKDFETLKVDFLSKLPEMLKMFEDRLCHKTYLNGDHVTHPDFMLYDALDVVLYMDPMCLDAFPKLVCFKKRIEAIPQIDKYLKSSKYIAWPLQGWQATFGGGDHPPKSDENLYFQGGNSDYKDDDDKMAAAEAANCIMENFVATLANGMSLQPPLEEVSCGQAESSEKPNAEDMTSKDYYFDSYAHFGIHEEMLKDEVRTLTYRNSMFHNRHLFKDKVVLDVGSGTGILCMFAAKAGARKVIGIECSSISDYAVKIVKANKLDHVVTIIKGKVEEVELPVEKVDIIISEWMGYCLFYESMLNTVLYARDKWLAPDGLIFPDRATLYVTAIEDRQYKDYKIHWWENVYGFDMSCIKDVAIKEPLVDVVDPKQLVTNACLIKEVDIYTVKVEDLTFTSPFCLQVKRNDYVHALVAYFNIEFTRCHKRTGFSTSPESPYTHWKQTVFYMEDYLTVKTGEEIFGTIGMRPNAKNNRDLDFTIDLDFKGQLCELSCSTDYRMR
Excerpt: S-adenosylmethionine (SAM), S-adenosylhomocysteine (SAH), bicine, Tween20, dimethylsulfoxide (DMSO), bovine skin gelatin (BSG), and Tris(2-carboxyethyl)phosphine hydrochloride solution (TCEP) were purchased from Sigma-Aldrich at the highest level of purity possible. ^3H-SAM was purchase from American Radiolabeled Chemicals with a specific activity of 80 Ci/mmol. 384-well streptavidin Flashplates were purchased from PerkinElmer.
Recombinant baculovirus were generated according to Bac-to-Bac kit instructions (Life Technologies). Protein over-expression was accomplished by infecting exponentially growing High Five insect cell culture at 1.5×10^6 cell/ml with 1:100 ratio of virus. Infections were carried out at 27° C. for 48 hours, harvested by centrifugation, and stored at −80° C. for purification.
GST-tagged PRMT1 was eluted with 50 mM Tris, 2 mM glutathione, pH 7.8, dialysed in buffer A and concentrated to 1 mg/mL.
General Procedure for PRMT1 Enzyme Assays on Peptide Substrates.
The assays were all performed in a buffer consisting of 20 mM Bicine (pH=7.6), 1 mM TCEP, 0.005% BSG, and 0.002% Tween 20, prepared on the day of use. […] DMSO (1 ul) was added to Columns 11, 12, 23, 24, rows A-H for the maximum signal control and 1 ul of SAH, a known product and inhibitor of PRMT1, was added to columns 11, 12, 23, 24, rows I-P for the minimum signal control. A cocktail (40 ul) containing the PRMT1 enzyme was added by Multidrop Combi (Thermo-Fisher). The compounds were allowed to incubate with PRMT1 for 30 min at room temperature, then a cocktail (10 ul) containing SAM and peptide was added to initiate the reaction (final volume=51 ul). […] The assays were stopped by the addition of non-radiolabeled SAM (10 ul) to a final concentration of 300 uM, which dilutes the ^3H-SAM to a level where its incorporation into the peptide substrate is no longer detectable. […] The plates were then read in a PerkinElmer TopCount plate reader to measure the quantity of ^3H-labeled peptide bound to the Flashplate surface, measured as disintegrations per minute (dpm) or alternatively, referred to as counts per minute (cpm).
Where dpm=disintegrations per minute, cmpd=signal in assay well, and min and max are the respective minimum and maximum signal controls.
Where top and bottom are the normally allowed to float, but may be fixed at 100 or 0 respectively in a 3-parameter fit. The Hill Coefficient normally allowed to float but may also be fixed at 1 in a 3-parameter fit. Y is the % inhibition and X is the compound concentration.

[2] = system: RKO cells; assay: RKO Methylation Assay (In Cell Western for mono-methyl arginine and DNA content); format: cell-based; conditions: Homo sapiens
Excerpt: RKO adherent cells were purchased from ATCC (American Type Culture Collection), Manassas, Va., USA. DMEM/Glutamax medium, penicillin-streptomycin, heat inactivated fetal bovine serum, 0.05% trypsin and D-PBS were purchased from Life Technologies, Grand Island, N.Y., USA. Odyssey blocking buffer, 800CW goat anti-rabbit IgG (H+L) antibody, and Licor Odyssey infrared scanner were purchased from Licor Biosciences, Lincoln, Nebr., USA. Mono-methyl arginine antibody was purchased from Cell Signaling Technology, Danvers, Mass., USA. Methanol was purchased from VWR, Franklin, Mass., USA. 10% Tween 20 was purchased from KPL, Inc., Gaithersburg, Md., USA. DRAQ5 was purchased from Biostatus Limited, Leicestershire, UK.
RKO adherent cells were maintained in growth medium (DMEM/Glutamax medium supplemented with 10% v/v heat inactivated fetal bovine serum and 100 units/mL penicillin-streptomycin) and cultured at 37° C. under 5% CO2.
Cell Treatment, in Cell Western (ICW) for Detection of Mono-Methyl Arginine and DNA Content.
Compound (100 nL) from a 96-well source plate was added directly to 384 well cell plate. Plates were incubated at 37° C., 5% CO2 for 72 hours. After three days of incubation, plates were brought to room temperature outside of the incubator for ten minutes and blotted on paper towels to remove cell media. 50 μL of ice cold 100% methanol was added directly to each well and incubated for 30 min at room temperature. After 30 min, plates were transferred to a Biotek EL406 plate washer and washed 2 times with 100 μL per well of wash buffer (1×PBS). Next 60 μL per well of Odyssey blocking buffer (Odyssey Buffer with 0.1% Tween 20 (v/v)) were added to each plate and incubated 1 hour at room temperature. Blocking buffer was removed and 20 μL per well of primary antibody was added (mono-methyl arginine diluted 1:200 in Odyssey buffer with 0.1% Tween 20 (v/v)) and plates were incubated overnight (16 hours) at 4° C. Plates were washed 5 times with 100 µL per well of wash buffer. Next 20 μL per well of secondary antibody was added (1:200 800CW goat anti-rabbit IgG (H+L) antibody, 1:1000 DRAQ5 (Biostatus limited) in Odyssey buffer with 0.1% Tween 20 (v/v)) and incubated for 1 hour at room temperature. The plates were washed 5 times with 100 μL per well wash buffer then 2 times with 100 μL per well of water. Plates were allowed to dry at room temperature then imaged on the Licor Odyssey machine which measures integrated intensity at 700 nm and 800 nm wavelengths. Both 700 and 800 channels were scanned.
First, the ratio for each well was determined by:
Each plate included fourteen control wells of DMSO only treatment (minimum activation) as well as fourteen control wells for maximum activation treated with 20 μM of a reference compound. The average of the ratio values for each control type was calculated and used to determine the percent activation for each test well in the plate. Reference compound was serially diluted three-fold in DMSO for a total of nine test concentrations, beginning at 20 μM. Percent activation was determined and EC30 curves were generated using triplicate wells per concentration of compound.

[3] = RKO, 72 h, read-out: In Cell Western data (Numerical, μM) EC30
[4] = RKO, 72 h, read-out: In Cell Western data EC30
[5] = RKO cells, 72 hours, mono-methyl arginine, class symbols, Table 3, read-out: In Cell Western data EC30
[6] = RKO cells, 72 hours, mono-methyl arginine, single experiment or average of multiple experiments, Table 3a, read-out: In Cell Western data (Numerical, μM) EC30

SMILES | IC50 [1] [µM] | further results
CNCCN(C)Cc1c[nH]nc1-c1cc(OCC2CCOCC2)cc(C(F)(F)F)c1 [Compound 46] | 0.0282 | EC30 [2, 3]: 2.62 µM; EC30 [2, 4]: < 3 µM
CNCCN(C)Cc1c[nH]nc1-c1cc(Cl)c(OCC2CCC2)c(C(F)(F)F)c1 [Compound 35] | 0.00431 | EC30 [2, 3]: 0.694 µM; EC30 [2, 4]: < 3 µM
CNCCN(C)Cc1c[nH]nc1-c1cc(Cl)c(OCC2CC2)c(C(F)(F)F)c1 [Compound 41] | 0.00636 | EC30 [2, 3]: 2.39 µM; EC30 [2, 4]: < 3 µM
CNCCN(C)Cc1c[nH]nc1-c1cc(C)c(OCC2CCOCC2)c(C(F)(F)F)c1 [Compound 65] | 0.0471 | EC30 [2, 3]: 1.45 µM; EC30 [2, 4]: < 3 µM
CC(C)Oc1ccc(-c2n[nH]cc2CN(C)CCN)cc1C(F)(F)F [Compound 5] | 0.00445 | EC30 [2, 3]: 0.305 µM; EC30 [2, 4]: < 3 µM
CNCCN(C)Cc1c[nH]nc1-c1ccc(OCCCOC)c(C(F)(F)F)c1 [Compound 13] | 0.0108 | EC30 [2, 3]: 0.567 µM; EC30 [2, 4]: < 3 µM
CNCCN(C)Cc1c[nH]nc1-c1cc(C)c(OC2CCOCC2)c(C(F)(F)F)c1 [Compound 59] | 0.0316 | EC30 [2, 3]: 1.37 µM; EC30 [2, 4]: < 3 µM
CN(CCN)Cc1n[nH]cc1-c1cc(C(F)(F)F)cc(C(F)(F)F)c1 [Compound 7] | 2.6 | 
CCCOc1ccc(-c2n[nH]cc2CN(C)CCNC)cc1C(F)(F)F [Compound 11] | 0.00462 | EC30 [2, 3]: 0.558 µM; EC30 [2, 4]: < 3 µM
CNCCN(C)Cc1c[nH]nc1-c1ccc(OCCOC)c(C(F)(F)F)c1 [Compound 14] | 0.00554 | EC30 [2, 3]: 0.383 µM; EC30 [2, 4]: < 3 µM
CNCCN(C)Cc1c[nH]nc1-c1cc(OCCc2ccccc2)cc(C(F)(F)F)c1 [Compound 42] |  | EC30 [2, 3]: 2.7 µM; EC30 [2, 4]: < 3 µM
COCCOc1cc(-c2n[nH]cc2CN(C)CCN)cc(C(F)(F)F)c1Cl [Compound 56] | 0.194 | 
CNCCN(C)Cc1c[nH]nc1-c1cc(Oc2cncnc2)cc(C(F)(F)F)c1 [Compound 53] | 0.299 | 
CNCCN(C)Cc1c[nH]nc1-c1ccc(OCCC(C)C)c(C(F)(F)F)c1 [Compound 9] |  | EC30 [2, 3]: 1.77 µM; EC30 [2, 4]: < 3 µM
CN(CCN)Cc1c[nH]nc1-c1cc(C(F)(F)F)cc(C(F)(F)F)c1 [Compound 2] | 0.389 | 
CNCCN(C)Cc1c[nH]nc1-c1cc(OCCOC)c(Cl)c(C(F)(F)F)c1 [Compound 55] | 0.163 | 
CCCOc1cc(-c2c[nH]nc2CN(C)CCNC)cc(C(F)(F)F)c1 [Compound 31] | 0.17 | 
CNCCN(C)Cc1n[nH]cc1-c1cc(C(O)C(C)C)cc(C(F)(F)F)c1 (centres unmarked) [Compound 32] | > 1 | 

More lines, main results first:

IC50 [1] [µM] | SMILES | further results
0.0275 | CCCOc1cc(-c2n[nH]cc2CN(C)CCNC)cc(C(F)(F)F)c1 [Compound 19] | EC30 [2, 5]: 3.01 to 12 µM; EC30 [2, 6]: 5.07 µM
0.00917 | CN(CCN)Cc1n[nH]cc1-c1ccc(Oc2ccccc2)c(C(F)(F)F)c1 [Compound 26] | 
0.0572 | CN(CCN)Cc1c[nH]nc1-c1ccc(F)c(C(F)(F)F)c1 [Compound 4] | 
0.0123 | CNCCN(C)Cc1c[nH]nc1-c1cc(Oc2ccccc2)cc(C(F)(F)F)c1 [Compound 36] | EC30 [2, 5]: < 3 µM; EC30 [2, 6]: 2.18 µM
0.0259 | CNCCN(C)Cc1c[nH]nc1-c1cc(OC2CCCCC2)cc(C(F)(F)F)c1 [Compound 39] | 
0.00704 | CNCCN(C)Cc1c[nH]nc1-c1cc(OCCC(C)C)cc(C(F)(F)F)c1 [Compound 12] | EC30 [2, 5]: < 3 µM; EC30 [2, 6]: 1.44 µM
0.139 | CNCCN(C)Cc1n[nH]cc1-c1cc(OCCCOC)cc(C(F)(F)F)c1 [Compound 27] | 
0.0576 | CNCCN(C)Cc1c[nH]nc1-c1cc(OCC(F)(F)F)cc(C(F)(F)F)c1 [Compound 60] | 
0.0663 | CNCCN(C)Cc1n[nH]cc1-c1cc(OCC(C)C)cc(C(F)(F)F)c1 [Compound 29] | 
0.0318 | CNCCN(C)Cc1c[nH]nc1-c1cc(OCCCOC)c(Cl)c(C(F)(F)F)c1 [Compound 57] | 
0.0136 | CNCCN(C)Cc1c[nH]nc1-c1cc(CCC(C)C)cc(C(F)(F)F)c1 [Compound 62] | 
0.0165 | CNCCN(C)Cc1c[nH]nc1-c1cc(OCCCC(=O)OC)cc(C(F)(F)F)c1 [Compound 61] | 
0.0441 | CNCCN(C)Cc1n[nH]cc1-c1cc(Cl)c(OC(C)C)c(C(F)(F)F)c1 [Compound 33] | 
0.0114 | CC(C)CCc1cc(-c2n[nH]cc2CN(C)CCN)cc(C(F)(F)F)c1 [Compound 63] | 
0.0103 | CNCCN(C)Cc1c[nH]nc1-c1cc(OCC2CCCC2)cc(C(F)(F)F)c1 [Compound 45] | 
0.123 | CNCCN(C)Cc1c[nH]nc1-c1cccc(C(F)(F)F)c1 [Compound 1] | 
0.152 | CC(C)CCOc1cc(-c2n[nH]cc2CN(C)CCN)cc(C(F)(F)F)c1Cl [Compound 40] | 
0.0189 | CNCCN(C)Cc1n[nH]cc1-c1cc(OCCC(C)C)cc(C(F)(F)F)c1 [Compound 22] | 
0.146 | CNCCN(C)Cc1c[nH]nc1-c1cc(OCCC(C)C)c(Cl)c(C(F)(F)F)c1 [Compound 54] | 
0.0232 | CN(CCN)Cc1c[nH]nc1-c1ccc(Cl)c(C(F)(F)F)c1 [Compound 3] | 
0.0162 | CNCCN(C)Cc1c[nH]nc1-c1cc(OCC(C)C)cc(C(F)(F)F)c1 [Compound 15] | 
